Measurements reported in article PMC5224920, “Assessing the mechanism and therapeutic potential of modulators of the human Mediator complex-associated protein kinases” (eLife, 2016).

Test system: 12 single or co-culture in vitro tissue models of primary cells
Experiment: Culture/co-culture cell model panel, extracellular biomarkers (DiscoveRx); for CCL2/MCP-1: reference of the scale not given here; for CD141/Thrombomodulin: reference of the scale not given here; for CD142/Tissue Factor: reference of the scale not given here; for CXCL8/IL-8: reference of the scale not given here; for CXCL9/MIG: reference of the scale not given here; for M-CSF: reference of the scale not given here; for SRB: reference of the scale not given here
Format: cell-based, human
[1] = /HDFNo unstimulated fibroblasts, 1.00E0 nM
[2] = /HDFNo unstimulated fibroblasts, 1.00E1 nM
[3] = /HDFNo unstimulated fibroblasts, 1.00E2 nM
[4] = /HDFNo unstimulated fibroblasts, 1.00E3 nM
[5] = /HDFNo unstimulated fibroblasts, 1.00E4 nM

CN1c2ccc(-c3cncc(Cl)c3N3CCC4(CC3)CNC(=O)O4)cc2CS1(=O)=O [CMPD2]
CCL2/MCP-1 (3C, 1.00E0 nM): 0.00665 | CD54/ICAM-1 (3C, 1.00E0 nM): -0.015 | CD87/uPAR (3C, 1.00E0 nM): -0.232 | CD106/VCAM-1 (3C, 1.00E0 nM): 0.040 | CD141/Thrombomodulin (3C, 1.00E0 nM): 0.035 | CD142/Tissue Factor (3C, 1.00E0 nM): 0.086 | CXCL8/IL-8 (3C, 1.00E0 nM): 0.001 | CXCL9/MIG (3C, 1.00E0 nM): -0.002 | HLA-DR (3C, 1.00E0 nM): -0.059 | Proliferation (3C, 1.00E0 nM): -0.0027 | SRB (3C, 1.00E0 nM): -0.057 | CCL2/MCP-1 (3C, 1.00E1 nM): -0.088 | CD54/ICAM-1 (3C, 1.00E1 nM): -0.034 | CD87/uPAR (3C, 1.00E1 nM): -0.339 | CD106/VCAM-1 (3C, 1.00E1 nM): 0.048 | CD141/Thrombomodulin (3C, 1.00E1 nM): 0.056 | CD142/Tissue Factor (3C, 1.00E1 nM): 0.130 | CXCL8/IL-8 (3C, 1.00E1 nM): -0.104 | CXCL9/MIG (3C, 1.00E1 nM): -0.011 | HLA-DR (3C, 1.00E1 nM): -0.129 | Proliferation (3C, 1.00E1 nM): -0.036 | SRB (3C, 1.00E1 nM): -0.071 | CCL2/MCP-1 (3C, 1.00E2 nM): -0.157 | CD54/ICAM-1 (3C, 1.00E2 nM): -0.046 | CD87/uPAR (3C, 1.00E2 nM): -0.368 | CD106/VCAM-1 (3C, 1.00E2 nM): 0.046 | CD141/Thrombomodulin (3C, 1.00E2 nM): 0.051 | CD142/Tissue Factor (3C, 1.00E2 nM): 0.120 | CXCL8/IL-8 (3C, 1.00E2 nM): -0.212 | CXCL9/MIG (3C, 1.00E2 nM): -0.016 | HLA-DR (3C, 1.00E2 nM): -0.138 | Proliferation (3C, 1.00E2 nM): -0.098 | SRB (3C, 1.00E2 nM): -0.085 | CCL2/MCP-1 (3C, 1.00E3 nM): -0.150 | CD54/ICAM-1 (3C, 1.00E3 nM): -0.055 | CD87/uPAR (3C, 1.00E3 nM): -0.368 | CD106/VCAM-1 (3C, 1.00E3 nM): 0.045 | CD141/Thrombomodulin (3C, 1.00E3 nM): 0.055 | CD142/Tissue Factor (3C, 1.00E3 nM): 0.116 | CXCL8/IL-8 (3C, 1.00E3 nM): -0.275 | CXCL9/MIG (3C, 1.00E3 nM): -0.019 | HLA-DR (3C, 1.00E3 nM): -0.153 | Proliferation (3C, 1.00E3 nM): -0.074 | SRB (3C, 1.00E3 nM): -0.078 | CCL2/MCP-1 (3C, 1.00E4 nM): -0.161 | CD54/ICAM-1 (3C, 1.00E4 nM): -0.041 | CD87/uPAR (3C, 1.00E4 nM): -0.370 | CD106/VCAM-1 (3C, 1.00E4 nM): 0.044 | CD141/Thrombomodulin (3C, 1.00E4 nM): 0.020 | CD142/Tissue Factor (3C, 1.00E4 nM): 0.089 | CXCL8/IL-8 (3C, 1.00E4 nM): -0.273 | CXCL9/MIG (3C, 1.00E4 nM): -0.019 | HLA-DR (3C, 1.00E4 nM): -0.147 | Proliferation (3C, 1.00E4 nM): -0.089 | SRB (3C, 1.00E4 nM): -0.086 | CCL2/MCP-1 (/HDF3CT, 1.00E0 nM): -0.00225 | CD54/ICAM-1 (/HDF3CT, 1.00E0 nM): -0.030 | CD106/VCAM-1 (/HDF3CT, 1.00E0 nM): 0.019 | CXCL8/IL-8 (/HDF3CT, 1.00E0 nM): -0.027 | CXCL9/MIG (/HDF3CT, 1.00E0 nM): 0.019 | CXCL10/IP-10 (/HDF3CT, 1.00E0 nM): 0.006 | Collagen I (/HDF3CT, 1.00E0 nM): -0.00072 | M-CSF (/HDF3CT, 1.00E0 nM): 0.017 | MMP-1 (/HDF3CT, 1.00E0 nM): 0.072 | PAI-I (/HDF3CT, 1.00E0 nM): 0.018 | SRB (/HDF3CT, 1.00E0 nM): 0.014 | TIMP-2 (/HDF3CT, 1.00E0 nM): 0.034 | CCL2/MCP-1 (/HDF3CT, 1.00E1 nM): -0.044 | CD54/ICAM-1 (/HDF3CT, 1.00E1 nM): -0.067 | CD106/VCAM-1 (/HDF3CT, 1.00E1 nM): 0.019 | CXCL8/IL-8 (/HDF3CT, 1.00E1 nM): -0.054 | CXCL9/MIG (/HDF3CT, 1.00E1 nM): 0.015 | CXCL10/IP-10 (/HDF3CT, 1.00E1 nM): 0.022 | Collagen I (/HDF3CT, 1.00E1 nM): -0.038 | M-CSF (/HDF3CT, 1.00E1 nM): -0.031 | MMP-1 (/HDF3CT, 1.00E1 nM): 0.112 | PAI-I (/HDF3CT, 1.00E1 nM): -0.053 | SRB (/HDF3CT, 1.00E1 nM): -0.00569 | TIMP-2 (/HDF3CT, 1.00E1 nM): 0.057 | CCL2/MCP-1 (/HDF3CT, 1.00E2 nM): -0.108 | CD54/ICAM-1 (/HDF3CT, 1.00E2 nM): -0.073 | CD106/VCAM-1 (/HDF3CT, 1.00E2 nM): 0.009 | CXCL8/IL-8 (/HDF3CT, 1.00E2 nM): -0.154 | CXCL9/MIG (/HDF3CT, 1.00E2 nM): -0.031 | CXCL10/IP-10 (/HDF3CT, 1.00E2 nM): 0.011 | Collagen I (/HDF3CT, 1.00E2 nM): -0.041 | M-CSF (/HDF3CT, 1.00E2 nM): -0.045 | MMP-1 (/HDF3CT, 1.00E2 nM): 0.027 | PAI-I (/HDF3CT, 1.00E2 nM): -0.092 | SRB (/HDF3CT, 1.00E2 nM): -0.00555 | TIMP-2 (/HDF3CT, 1.00E2 nM): 0.013 | CCL2/MCP-1 (/HDF3CT, 1.00E3 nM): -0.094 | CD54/ICAM-1 (/HDF3CT, 1.00E3 nM): -0.080 | CD106/VCAM-1 (/HDF3CT, 1.00E3 nM): -0.001 | CXCL8/IL-8 (/HDF3CT, 1.00E3 nM): -0.182 | CXCL9/MIG (/HDF3CT, 1.00E3 nM): -0.043 | CXCL10/IP-10 (/HDF3CT, 1.00E3 nM): 0.00749 | Collagen I (/HDF3CT, 1.00E3 nM): -0.064 | M-CSF (/HDF3CT, 1.00E3 nM): -0.064 | MMP-1 (/HDF3CT, 1.00E3 nM): 0.014 | PAI-I (/HDF3CT, 1.00E3 nM): -0.119 | SRB (/HDF3CT, 1.00E3 nM): -0.020 | TIMP-2 (/HDF3CT, 1.00E3 nM): 0.052 | CCL2/MCP-1 (/HDF3CT, 1.00E4 nM): -0.114 | CD54/ICAM-1 (/HDF3CT, 1.00E4 nM): -0.089 | CD106/VCAM-1 (/HDF3CT, 1.00E4 nM): 0.006 | CXCL8/IL-8 (/HDF3CT, 1.00E4 nM): -0.206 | CXCL9/MIG (/HDF3CT, 1.00E4 nM): -0.053 | CXCL10/IP-10 (/HDF3CT, 1.00E4 nM): 0.009 | Collagen I (/HDF3CT, 1.00E4 nM): -0.042 | M-CSF (/HDF3CT, 1.00E4 nM): -0.068 | MMP-1 (/HDF3CT, 1.00E4 nM): 0.035 | PAI-I (/HDF3CT, 1.00E4 nM): -0.129 | SRB (/HDF3CT, 1.00E4 nM): 0.00189 | TIMP-2 (/HDF3CT, 1.00E4 nM): 0.072 | CXCL8/IL-8 [1]: 0.063 | CXCL9/MIG [1]: 0.141 | CXCL10/IP-10 [1]: 0.082 | CXCL11/I-TAC [1]: 0.071 | EGFR [1]: 0.035 | M-CSF [1]: 0.081 | MMP-1 [1]: 0.152 | PAI-I [1]: 0.049 | Proliferation_72hr [1]: 0.007 | SRB [1]: 0.029 | TIMP-1 [1]: 0.066 | TIMP-2 [1]: 0.143 | CXCL8/IL-8 [2]: -0.030 | CXCL9/MIG [2]: 0.069 | CXCL10/IP-10 [2]: 0.062 | CXCL11/I-TAC [2]: 0.000639 | EGFR [2]: 0.025 | M-CSF [2]: 0.039 | MMP-1 [2]: 0.095 | PAI-I [2]: 0.00174 | Proliferation_72hr [2]: 0.026 | SRB [2]: -0.013 | TIMP-1 [2]: 0.023 | TIMP-2 [2]: 0.114 | CXCL8/IL-8 [3]: 0.056 | CXCL9/MIG [3]: 0.068 | CXCL10/IP-10 [3]: 0.052 | CXCL11/I-TAC [3]: -0.029 | EGFR [3]: 0.009 | M-CSF [3]: 0.012 | MMP-1 [3]: 0.109 | PAI-I [3]: 0.059 | Proliferation_72hr [3]: 0.043 | SRB [3]: -0.046 | TIMP-1 [3]: 0.021 | TIMP-2 [3]: 0.081 | CXCL8/IL-8 [4]: -0.00424 | CXCL9/MIG [4]: 0.019 | CXCL10/IP-10 [4]: 0.029 | CXCL11/I-TAC [4]: 0.022 | EGFR [4]: 0.016 | M-CSF [4]: 0.038 | MMP-1 [4]: 0.108 | PAI-I [4]: 0.005 | Proliferation_72hr [4]: 0.043 | SRB [4]: -0.011 | TIMP-1 [4]: -0.038 | TIMP-2 [4]: 0.090 | CXCL8/IL-8 [5]: 0.043 | CXCL9/MIG [5]: 0.044 | CXCL10/IP-10 [5]: 0.051 | CXCL11/I-TAC [5]: -0.015 | EGFR [5]: 0.031 | M-CSF [5]: -0.007 | MMP-1 [5]: 0.080 | PAI-I [5]: 0.026 | Proliferation_72hr [5]: 0.023 | SRB [5]: -0.018 | TIMP-1 [5]: -0.039 | TIMP-2 [5]: 0.105 | CCL2/MCP-1 (/HDFNo, 1.00E0 nM): 0.045 | CD54/ICAM-1 (/HDFNo, 1.00E0 nM): 0.099 | CD106/VCAM-1 (/HDFNo, 1.00E0 nM): 0.066 | Collagen I (/HDFNo, 1.00E0 nM): 0.074 | Collagen III (/HDFNo, 1.00E0 nM): 0.041 | CCL2/MCP-1 (/HDFNo, 1.00E1 nM): 0.107 | CD54/ICAM-1 (/HDFNo, 1.00E1 nM): 0.090 | CD106/VCAM-1 (/HDFNo, 1.00E1 nM): 0.050 | Collagen I (/HDFNo, 1.00E1 nM): 0.084 | Collagen III (/HDFNo, 1.00E1 nM): 0.042 | CCL2/MCP-1 (/HDFNo, 1.00E2 nM): 0.018 | CD54/ICAM-1 (/HDFNo, 1.00E2 nM): 0.060 | CD106/VCAM-1 (/HDFNo, 1.00E2 nM): 0.020 | Collagen I (/HDFNo, 1.00E2 nM): 0.100 | Collagen III (/HDFNo, 1.00E2 nM): 0.061 | CCL2/MCP-1 (/HDFNo, 1.00E3 nM): -0.027 | CD54/ICAM-1 (/HDFNo, 1.00E3 nM): 0.063 | CD106/VCAM-1 (/HDFNo, 1.00E3 nM): 0.049 | Collagen I (/HDFNo, 1.00E3 nM): 0.108
